Experimental data taken from US20250041303A1, “COMBINATION THERAPY FOR CANCER TREATMENT” (INSTITUTE FOR CANCER RESEARCH D/B/A THE RESEARCH INSTITUTE …, priority 2021, published 2025).

Legend:
[1] = test system: BET proteins (BRD2, BRD3 or BRD4); test: Western blot of BET protein degradation, parental vs degrader-resistant cells; type: cell-based; details: tariquidar 0.1 μM, 24 hours; A1847 dBET6-R, SUM159 MZ1-R (maintained in PROTAC)
Procedure: (§1) Samples were harvested in MIB lysis buffer (50 mM HEPES (pH 7.5), 0.5% Triton X-100, 150 mM NaCl, 1 mM EDTA, 1 mM EGTA, 10 mM sodium fluoride, 2.5 mM sodium orthovanadate, 1× protease inhibitor cocktail (Roche), and 1% each of phosphatase inhibitor cocktails 2 and 3 (Sigma)). Particulate was removed by centrifugation of lysates at 21,000 rpm for 15 minutes at 4° C. Lysates were subjected to SDS-PAGE chromatography and transferred to PVDF membranes before western blotting with primary antibodies. […] Secondary HRP-anti-rabbit and HRP-anti-mouse were obtained from ThermoFisher Scientific. SuperSignal West Pico and Femto Chemiluminescent Substrates (Thermo) were used to visualize blots.

CDK9 = CDK9 (Homo sapiens, UniProt P50750); test: Western blot of CDK9 degradation, A1847 parental vs Thal-R cells; type: cell-based; details: tariquidar 0.1 μM, 24 hours; A1847 Thal-R
CDK9, sequence (P50750 whole entry): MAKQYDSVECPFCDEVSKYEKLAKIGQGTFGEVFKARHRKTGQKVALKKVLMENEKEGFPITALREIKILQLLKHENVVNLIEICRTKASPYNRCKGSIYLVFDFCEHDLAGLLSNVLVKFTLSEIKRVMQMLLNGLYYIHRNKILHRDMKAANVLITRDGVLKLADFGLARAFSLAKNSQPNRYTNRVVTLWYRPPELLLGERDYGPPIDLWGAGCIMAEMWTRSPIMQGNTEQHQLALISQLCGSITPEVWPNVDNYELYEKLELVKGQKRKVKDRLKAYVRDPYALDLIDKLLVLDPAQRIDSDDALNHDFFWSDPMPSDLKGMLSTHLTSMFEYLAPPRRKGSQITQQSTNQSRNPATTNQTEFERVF
CDK9, sequence (O60563 whole entry partner): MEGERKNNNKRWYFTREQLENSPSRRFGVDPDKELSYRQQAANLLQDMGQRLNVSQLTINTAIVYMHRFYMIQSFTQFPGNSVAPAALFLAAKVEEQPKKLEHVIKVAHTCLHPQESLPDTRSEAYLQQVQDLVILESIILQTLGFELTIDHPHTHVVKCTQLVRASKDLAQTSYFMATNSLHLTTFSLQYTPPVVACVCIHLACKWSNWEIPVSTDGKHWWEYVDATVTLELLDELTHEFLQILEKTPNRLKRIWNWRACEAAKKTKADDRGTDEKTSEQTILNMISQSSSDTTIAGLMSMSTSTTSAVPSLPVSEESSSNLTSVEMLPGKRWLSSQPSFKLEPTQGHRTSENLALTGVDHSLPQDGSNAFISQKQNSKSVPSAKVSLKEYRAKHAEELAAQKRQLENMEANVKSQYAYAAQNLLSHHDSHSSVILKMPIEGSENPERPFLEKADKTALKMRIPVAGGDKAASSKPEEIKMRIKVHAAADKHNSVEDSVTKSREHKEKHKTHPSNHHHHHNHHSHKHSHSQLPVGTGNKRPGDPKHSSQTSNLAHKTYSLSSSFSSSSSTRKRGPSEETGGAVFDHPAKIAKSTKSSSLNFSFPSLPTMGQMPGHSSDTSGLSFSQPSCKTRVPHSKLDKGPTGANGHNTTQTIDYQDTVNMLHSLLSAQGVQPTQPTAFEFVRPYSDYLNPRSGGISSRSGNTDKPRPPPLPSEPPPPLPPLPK
Procedure: as §1

KRASG12C = biological target: T1, KRASG12C (Homo sapiens, UniProt P01116, G12C); test: Western blot of KRASG12C and effector signaling in SW1463 cells; type: cell-based; details: SW1463; lapatinib 5 μM or tariquidar 0.01 μM, 48 hours
T1 construct: endogenous in cells; host or cells: SW1463
Procedure: as §1

SW1463 cells = test: CellTiter-Glo viability with Bliss drug synergy analysis in SW1463 cells; type: cell-based
A1847 or SUM159 cells = test: Colony formation assay (14 days, crystal violet); details: SUM159 cells expressing Flag-MDR1, MZ1 0.1 μM, with or without tariquidar 0.1 μM
[2] = test system: A1847 and SUM159 parental and degrader-resistant cells; test: CellTiter-Glo cell viability, parental vs degrader-resistant cells; details: increasing concentrations; A1847 dBET6-R, Thal-R, MZ1-R and SUM159 MZ1-R
[3] = test system: OVCAR3, HCT116, and MOLT4 cells; test: CellTiter-Glo cell viability, parental vs MZ1 chronically exposed cells; details: MZ1-R OVCAR3 and HCT116 vs parental
SW837 cells = test: CellTiter-Glo viability with Bliss drug synergy analysis in SW837 cells
MDR1 = MDR1 (Homo sapiens, UniProt P08183); test: Rhodamine 123 efflux assay in degrader-resistant cells; type: cell-based; design: endogenous in cells; host or cells: A1847 parental, dBET6-R, Thal-R; SUM159 parental, MZ1-R; details: A1847 dBET6-R, Thal-R or MZ1-R SUM159 cells compared to parental cells
MDR1, sequence (P08183 whole entry): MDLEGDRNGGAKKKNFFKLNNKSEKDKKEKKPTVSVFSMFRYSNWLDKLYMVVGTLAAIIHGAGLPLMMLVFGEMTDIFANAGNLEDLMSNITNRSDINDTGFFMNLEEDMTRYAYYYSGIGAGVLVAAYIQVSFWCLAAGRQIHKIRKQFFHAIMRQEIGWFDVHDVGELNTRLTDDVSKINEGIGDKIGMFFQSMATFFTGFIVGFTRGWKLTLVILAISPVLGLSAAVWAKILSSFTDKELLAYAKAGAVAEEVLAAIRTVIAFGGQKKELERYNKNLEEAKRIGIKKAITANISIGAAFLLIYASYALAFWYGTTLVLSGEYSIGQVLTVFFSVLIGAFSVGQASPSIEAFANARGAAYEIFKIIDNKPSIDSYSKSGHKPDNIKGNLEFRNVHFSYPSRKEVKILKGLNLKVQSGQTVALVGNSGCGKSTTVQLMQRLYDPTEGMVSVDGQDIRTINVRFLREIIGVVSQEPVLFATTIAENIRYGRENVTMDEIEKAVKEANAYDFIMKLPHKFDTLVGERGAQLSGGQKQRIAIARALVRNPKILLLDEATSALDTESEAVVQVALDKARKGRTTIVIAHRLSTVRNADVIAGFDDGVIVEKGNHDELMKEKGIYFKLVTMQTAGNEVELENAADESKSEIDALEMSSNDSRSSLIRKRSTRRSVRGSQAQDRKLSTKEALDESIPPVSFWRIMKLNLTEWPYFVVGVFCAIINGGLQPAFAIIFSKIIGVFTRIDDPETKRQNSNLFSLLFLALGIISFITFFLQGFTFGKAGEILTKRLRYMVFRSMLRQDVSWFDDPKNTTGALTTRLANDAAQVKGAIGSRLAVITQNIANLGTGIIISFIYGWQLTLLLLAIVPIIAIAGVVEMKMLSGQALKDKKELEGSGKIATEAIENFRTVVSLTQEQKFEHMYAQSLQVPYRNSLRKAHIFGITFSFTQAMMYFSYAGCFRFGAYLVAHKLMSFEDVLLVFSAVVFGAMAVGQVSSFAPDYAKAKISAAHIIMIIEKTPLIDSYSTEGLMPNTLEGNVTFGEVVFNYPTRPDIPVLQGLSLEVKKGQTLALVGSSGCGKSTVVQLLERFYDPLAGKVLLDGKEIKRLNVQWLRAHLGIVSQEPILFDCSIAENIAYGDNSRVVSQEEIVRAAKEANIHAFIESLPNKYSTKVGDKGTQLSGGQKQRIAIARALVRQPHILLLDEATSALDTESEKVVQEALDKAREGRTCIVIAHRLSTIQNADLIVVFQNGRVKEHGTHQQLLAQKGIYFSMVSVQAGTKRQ
Procedure: Efflux assay was performed according to manufacturer's protocol (Millipore Sigma #ECM910). Cells were resuspended in cold efflux buffer and incubated with Rhodamine 123 for 1 hour on ice. Cells were centrifuged and treated in warm efflux buffer with DMSO or drug for 30-60 minutes, washed with cold PBS, and effluxed dye was quantified with a plate reader at an excitation wavelength of 485 nm and an emission wavelength of 530 nm.

For `COc1cc2c(cc1OC)CN(CCc1ccc(NC(=O)c3cc(OC)c(OC)cc3NC(=O)c3cnc4ccccc4c3)cc1)CC2` [tariquidar], the “degradation of BET proteins in degrader-resistant cells on MDR1 inhibition” value [1] was “restored degradation of BET proteins or CDK9”, the “degradation of CDK9 in degrader-resistant cells on MDR1 inhibition” value (CDK9) was “restored degradation of BET proteins or CDK9” and the “PROTAC-mediated degradation of KRASG12C on combining with LC-2” value (KRASG12C) was “improved PROTAC-mediated degradation of KRASG12C reducing protein levels”. The “phosphorylation of MEK and ERK on combining with LC-2” value (KRASG12C) was “reduced phosphorylation of MEK and ERK”, the “drug synergy with LC-2” value (SW1463 cells) was “marginal synergy” and the “colony formation with forced expression of Flag-MDR1” value (A1847 or SUM159 cells) was “could be blocked by tariquidar-treatment”. For the same compound, the “sensitivity of degrader-resistant cells vs parental cells (cell viability)” value [2] was “more sensitive”, the “sensitivity of MZ1-resistant cells (cell viability)” value [3] was “increased sensitivity” and the “drug synergy with LC-2” value (SW837 cells) was “marginal synergy”. For the same compound, the “MDR1 drug efflux pump activity (efflux of Rhodamine 123)” value (MDR1) was “reduced MDR1 drug efflux pump activity”.
